Measured values reported in the supplement of paper PMC10307832.

Tests used:
Test in all cases: relative viability (nuclei count vs DMSO), 5 days (fraction); higher = more cells survive
[1] = compound: Cc1ccc(NC(=O)c2ccc(CN3CCN(C)CC3)cc2)cc1Nc1nc(-c2cccnc2)cs1 [Masitinib] + CC(C)C[C@H](NC(=O)[C@H](Cc1ccccc1)NC(=O)c1cnccn1)B(O)O [Bortezomib] (partner 0.002 µM)
How it was run: (§1)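 Dosing by pin tool came one day after lung cancer cell lines were seeded in 1536-well plates, using either one drug or a fixed anchor-drug dose plus five library-drug doses (not always all listed) in √10 steps. After 5 days, nuclei were counted on 4× images. Relative viability is treated-well nuclei count divided by vehicle-well nuclei count, and values are medians of duplicate plates.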

[2] = compound: CC1=CC(=CC=C1)NC2=NC(=CS2)C3=CC=NC=C3 + Cc1nc(NC(=O)N2CCC[C@H]2C(N)=O)sc1-c1ccnc(C(C)(C)C(F)(F)F)c1 [Alpelisib] (partner 2 µM)
How it was run: as §1

[3] = compound: CC1=CC(=CC=C1)NC2=NC(=CS2)C3=CC=NC=C3
How it was run: (§2)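 Viability was read as treated-well nuclei divided by vehicle-well nuclei, using the median across plates. Lung cancer cell lines in 1536-well plates were kept overnight at 37 °C, pinned with five √10-spaced library-drug doses, and after 5 days were Hoechst-stained, imaged at 4× and counted in MetaXpress. Plates passed only with control CV below 25% and at least one doubling.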

[4] = compound: Cc1ccc(NC(=O)c2ccc(CN3CCN(C)CC3)cc2)cc1Nc1nc(-c2cccnc2)cs1 [Masitinib]
How it was run: as §2

Row | Cell Line | relative viability ([1]; first compound 0.01 µM) | relative viability ([1]; first compound 0.1 µM) | relative viability ([1]; first compound 0.3162 µM) | relative viability ([1]; first compound 1 µM) | relative viability ([2]; first compound 0.08 µM) | relative viability ([2]; first compound 0.253 µM) | relative viability ([2]; first compound 0.8 µM) | relative viability ([2]; first compound 2.53 µM) | relative viability ([2]; first compound 8 µM) | relative viability ([3]; 0.08 µM) | relative viability ([3]; 0.253 µM) | relative viability ([3]; 0.8 µM) | relative viability ([3]; 2.53 µM) | relative viability ([3]; 8 µM) | relative viability ([4]; 0.01 µM) | relative viability ([4]; 0.03162 µM) | relative viability ([4]; 0.1 µM) | relative viability ([4]; 0.3162 µM) | relative viability ([4]; 1 µM) | relative viability ([1]; first compound 0.03162 µM)
1 | NCI-H1993 | 1.01 | 1.21 | 1.03 | 1.03 | 0.683 | 0.683 | 0.719 | 0.644 | 0.619 | 0.67 | 0.788 | 0.768 | 0.792 | 0.876 | 0.91 | 0.867 | 0.986 | 0.826 | 0.917 | 
2 | CAL-12T | 0.852 | 1.06 | 1.07 | 0.713 | 1.22 | 1.13 | 1.33 | 1.07 | 1.22 | 0.867 | 0.928 | 1.06 | 0.854 | 0.911 | 0.922 | 0.953 | 0.99 | 0.97 | 0.967 | 1.05
3 | NCI-H1623 |  |  |  |  |  |  |  |  |  | 0.948 | 0.886 | 0.894 | 0.81 | 0.84 | 0.982 | 0.883 | 0.894 | 0.889 | 0.905 | 
4 | HCC-44 | 0.765 | 0.854 | 0.773 | 0.857 | 0.601 | 0.497 | 0.56 | 0.644 | 0.608 | 0.862 | 0.795 | 0.843 | 0.797 | 0.859 | 0.816 | 1.01 | 0.978 | 0.871 | 0.961 | 0.778
5 | EKVX |  | 1.05 | 0.444 | 0.671 | 0.764 | 0.812 | 0.824 | 0.643 | 0.656 | 0.884 | 0.933 | 0.795 | 0.89 | 0.82 | 0.627 | 0.86 | 0.805 | 0.717 | 0.927 | 1.04
6 | NCI-H1666 | 0.71 | 0.854 | 0.555 | 0.612 | 0.44 | 0.597 | 0.447 | 0.472 | 0.298 | 0.866 | 0.83 | 0.818 | 0.705 | 0.688 | 0.779 | 0.944 | 0.939 | 0.846 | 0.961 | 0.726
7 | NCI-H2170 |  |  |  |  | 0.706 | 0.691 | 0.639 | 0.707 | 0.555 | 0.901 | 1.01 | 0.945 | 0.942 | 0.824 | 0.843 | 0.933 | 0.983 | 1.04 | 0.991 | 
8 | SK-MES-1 |  |  |  |  | 0.626 | 0.862 | 0.893 | 0.853 | 0.848 | 0.815 | 0.82 | 0.804 | 0.922 | 0.861 | 0.923 | 0.945 | 1.04 | 0.881 | 0.99 | 
9 | NCI-H1944 |  |  |  |  | 0.723 | 0.726 | 0.782 | 0.795 | 0.646 | 0.871 | 0.912 | 0.958 | 0.765 | 0.809 |  | 0.972 |  | 0.799 | 0.955 | 
10 | ChaGo-K-1 | 1.04 | 1.35 | 1.12 | 0.962 |  |  |  |  |  | 0.997 | 1.01 | 0.973 | 1.03 | 0.814 | 1.17 | 0.988 | 1.12 | 1.1 | 0.984 | 1.05
11 | NCI-H522 |  |  |  |  |  |  |  |  |  | 0.894 | 0.886 | 0.931 | 0.925 | 1.15 | 1.06 | 0.815 | 0.866 | 1.07 | 0.974 | 
12 | NCI-H1648 |  |  |  |  |  |  |  |  |  | 0.659 | 0.814 | 0.797 | 0.87 | 0.758 | 0.907 | 0.599 | 1.01 | 0.776 | 0.896 | 
13 | NCI-H1793 |  |  |  |  |  | 0.625 | 0.704 | 0.69 | 0.79 | 0.75 | 0.801 | 0.898 | 0.816 | 0.841 | 0.886 | 0.804 | 0.878 | 0.978 | 0.795 | 
14 | NCI-H2342 |  |  |  |  |  |  |  |  |  | 0.96 | 0.929 | 0.95 | 0.93 | 0.881 | 1.03 | 0.866 | 1.07 | 0.889 | 0.843 | 
15 | SW 900 |  |  |  |  |  |  |  |  |  | 0.708 | 0.774 | 0.808 | 0.487 | 0.514 | 0.854 | 0.881 | 0.778 | 0.629 | 0.7 | 
16 | LK-2 |  |  |  |  | 0.898 | 1.09 | 1.33 |  | 1.19 | 0.816 | 0.98 | 1.27 | 0.793 | 1.41 | 1.09 | 0.89 | 1.23 | 1.19 | 1.08 | 
17 | NCI-H1395 |  |  |  |  | 0.838 | 0.909 | 1.23 | 1.01 | 0.992 | 0.765 | 0.734 | 0.898 | 0.729 | 0.766 | 0.882 | 0.965 | 1.04 | 0.967 | 0.85 | 
18 | A549 |  |  |  |  | 0.778 | 0.693 | 0.913 | 0.758 | 0.673 | 0.888 | 0.871 | 0.943 | 0.929 | 0.921 | 0.906 | 0.953 | 1.09 | 1.03 | 0.856 | 
19 | NCI-H358 |  |  |  |  | 0.662 | 0.772 | 0.645 | 0.929 | 0.791 | 0.997 | 0.899 | 0.868 | 1.01 | 0.966 | 0.963 | 0.967 | 0.961 | 0.892 | 0.893 | 
20 | NCI-H1650 | 0.198 | 0.186 | 0.215 | 0.212 |  |  |  |  |  | 0.715 | 0.841 | 0.962 | 0.687 | 0.434 | 0.798 | 0.979 | 0.871 | 0.885 | 0.89 | 0.172
